PubChem BioAssay AID256 (DTP/NCI, 2004)
Values joined by “and” are separate entries in the source; they are usually repeats but may differ in a detail not shown here. Equal entries are not always repeated. Toxic doses and inconclusive results are not listed.

Tested on: CD2F1 mice, L1210 leukemia ip, survival T/C
Assay: NCI In Vivo Anticancer Drug Screen. Data for tumor model L1210 Leukemia (intraperitoneal) in CD2F1 (CDF1) mice
Settings: higher = longer survival
Summary of the method: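 Activity against a transplanted murine tumor was judged by comparing the compound group with a vehicle group. The outcome in the treated animals was divided by that in the controls.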

[1] = endpoint: mean survival time, dose: 100.0 mg/kg/injection, schedule: Q04DX002 (ip), vehicle: saline with Tween-80
[2] = endpoint: mean survival time, dose: 200.0 mg/kg/injection, schedule: Q04DX002 (ip), vehicle: saline with Tween-80
[3] = endpoint: mean survival time, dose: 400.0 mg/kg/injection, schedule: Q04DX002 (ip), vehicle: saline with Tween-80
[4] = endpoint: mean survival time, dose: 50.0 mg/kg/injection, schedule: Q01DX009 (ip), vehicle: saline with Tween-80
[5] = endpoint: mean survival time, dose: 100.0 mg/kg/injection, schedule: Q01DX009 (ip), vehicle: saline with Tween-80
[6] = endpoint: mean survival time, dose: 200.0 mg/kg/injection, schedule: Q01DX009 (ip), vehicle: saline with Tween-80
[7] = endpoint: mean survival time, dose: 50.0 mg/kg/injection, schedule: Q04DX002 (ip), vehicle: saline with Tween-80
[8] = endpoint: mean survival time, dose: 100.0 mg/kg/injection, schedule: Q04DX003 (ip), vehicle: saline with Tween-80
[9] = endpoint: mean survival time, dose: 200.0 mg/kg/injection, schedule: Q04DX003 (ip), vehicle: saline with Tween-80
[10] = endpoint: mean survival time, dose: 400.0 mg/kg/injection, schedule: Q04DX003 (ip), vehicle: saline with Tween-80
[11] = endpoint: mean survival time, dose: 200.0 mg/kg/injection, schedule: Q01DX001 (ip), vehicle: saline with Tween-80
[12] = endpoint: mean survival time, dose: 400.0 mg/kg/injection, schedule: Q01DX001 (ip), vehicle: saline with Tween-80

Brc1cnc(Br)s1
T/C (endpoint: mean survival time, dose: 13.0 mg/kg/injection, schedule: Q04DX002 (ip), vehicle: Klucel (hydroxypropylcellulose) (HPC)): 92 % of control | T/C (endpoint: mean survival time, dose: 20.0 mg/kg/injection, schedule: Q04DX002 (ip), vehicle: Klucel (hydroxypropylcellulose) (HPC)): 98 % of control | T/C (endpoint: mean survival time, dose: 30.0 mg/kg/injection, schedule: Q04DX002 (ip), vehicle: Klucel (hydroxypropylcellulose) (HPC)): 98 % of control | T/C (endpoint: mean survival time, dose: 45.0 mg/kg/injection, schedule: Q04DX002 (ip), vehicle: Klucel (hydroxypropylcellulose) (HPC)): 95 % of control

CCOc1ccccc1/C=C1\N=C(c2cc(OC)c(OC)c(OC)c2)OC1=O
T/C [1]: 106 % of control | T/C [2]: 100 % of control | T/C [3]: 95 % of control

C/C(=N\n1cc(-c2ccccc2)nc1N)c1ccccc1
T/C (endpoint: mean survival time, dose: 75.0 mg/kg/injection, schedule: Q01DX001 (ip), vehicle: saline): 91 % of control | T/C (endpoint: mean survival time, dose: 150.0 mg/kg/injection, schedule: Q01DX001 (ip), vehicle: saline): 97 % of control | T/C (endpoint: mean survival time, dose: 300.0 mg/kg/injection, schedule: Q01DX001 (ip), vehicle: saline): 93 % of control

NC(=S)c1ccc(OCCCc2ccccc2)cc1
T/C (endpoint: mean survival time, dose: 25.0 mg/kg/injection, schedule: Q01DX009 (ip), vehicle: saline with Tween-80): 95 % of control | T/C [4]: 95 % of control

CCOC(=O)C1CC2(CC(C(N)=O)C2)C1 (stereo unspecified)
T/C (endpoint: mean survival time, dose: 100.0 mg/kg/injection, schedule: Q01DX001 (ip), vehicle: saline): 103 % of control | T/C (endpoint: mean survival time, dose: 200.0 mg/kg/injection, schedule: Q01DX001 (ip), vehicle: saline): 100 % of control | T/C (endpoint: mean survival time, dose: 400.0 mg/kg/injection, schedule: Q01DX001 (ip), vehicle: saline): 93 % of control

C(=N\Nc1nc2ccccc2s1)/c1ccccc1
T/C (endpoint: mean survival time, dose: 100.0 mg/kg/injection, schedule: Q04DX003 (ip), vehicle: Klucel (hydroxypropylcellulose) (HPC)): 100 % of control | T/C (endpoint: mean survival time, dose: 200.0 mg/kg/injection, schedule: Q04DX003 (ip), vehicle: Klucel (hydroxypropylcellulose) (HPC)): 105 % of control | T/C (endpoint: mean survival time, dose: 400.0 mg/kg/injection, schedule: Q04DX003 (ip), vehicle: Klucel (hydroxypropylcellulose) (HPC)): 92 % of control

NC(=O)C1=C(N)CCC1
T/C [5]: 104 % of control | T/C [6]: 104 % of control | T/C (endpoint: mean survival time, dose: 400.0 mg/kg/injection, schedule: Q01DX009 (ip), vehicle: saline with Tween-80): 106 % of control

NC(=O)N/N=C1\CC(S(=O)(=O)O)NC(=O)N1 (stereo unspecified)
T/C [7]: 98 % of control | T/C [1]: 95 % of control | T/C [2]: 95 % of control

Clc1ccc(SC=C(Sc2ccc(Cl)cc2)Sc2ccc(Cl)cc2)cc1
T/C (endpoint: mean survival time, dose: 100.0 mg/kg/injection, schedule: Q04DX002 (ip), vehicle: other): 94 % of control | T/C (endpoint: mean survival time, dose: 200.0 mg/kg/injection, schedule: Q04DX002 (ip), vehicle: other): 94 % of control | T/C (endpoint: mean survival time, dose: 400.0 mg/kg/injection, schedule: Q04DX002 (ip), vehicle: other): 87 % of control

Clc1ccccc1P(c1ccccc1)c1ccccc1
T/C (endpoint: mean survival time, dose: 25.0 mg/kg/injection, schedule: Q04DX002 (ip), vehicle: saline with Tween-80): 100 % of control | T/C [7]: 100 % of control | T/C [1]: 100 % of control

NCCSC1(O)C(=O)c2ccccc2-c2ccccc21 (stereo unspecified)
T/C (endpoint: mean survival time, dose: 37.5 mg/kg/injection, schedule: Q01DX009 (ip), vehicle: saline): 100 % of control | T/C (endpoint: mean survival time, dose: 75.0 mg/kg/injection, schedule: Q01DX009 (ip), vehicle: saline): 101 % of control | T/C (endpoint: mean survival time, dose: 150.0 mg/kg/injection, schedule: Q01DX009 (ip), vehicle: saline): 91 % of control

CCCCCOCC
T/C [1]: 102 % of control | T/C [2]: 98 % of control | T/C [3]: 98 % of control

CC(NC(=O)OCc1ccccc1)C(=O)O (stereo unspecified)
T/C [5]: 97 % of control | T/C [8]: 100 % of control | T/C [6]: 94 % of control | T/C [9]: 105 % of control | T/C [10]: 103 % of control

O=C(Nc1ccc(F)cc1)Nc1ccc(F)cc1
T/C [1]: 94 % of control | T/C [2]: 87 % of control

Oc1ccccc1/C=N/c1nc(-c2ccccc2)cs1.[Co].[O-]c1ccccc1/C=N/c1nc(-c2ccccc2)cs1
T/C [11]: 86 % of control | T/C [12]: 89 % of control

CCC(=O)[O][Bi]([c]1ccccc1)[c]1ccccc1
T/C (endpoint: median survival time, dose: 3.12 mg/kg/injection, schedule: Q01DX009 (ip), vehicle: Klucel (hydroxypropylcellulose) (HPC)): 108 % of control | T/C (endpoint: median survival time, dose: 6.25 mg/kg/injection, schedule: Q01DX009 (ip), vehicle: Klucel (hydroxypropylcellulose) (HPC)): 108 % of control | T/C (endpoint: median survival time, dose: 12.5 mg/kg/injection, schedule: Q01DX009 (ip), vehicle: Klucel (hydroxypropylcellulose) (HPC)): 103 % of control | T/C (endpoint: median survival time, dose: 25.0 mg/kg/injection, schedule: Q01DX009 (ip), vehicle: Klucel (hydroxypropylcellulose) (HPC)): 112 % of control and 111 % of control

c1ccc2c(c1)Cc1c(NC3=NCCO3)cccc1-2
T/C [8]: 98 % of control | T/C [9]: 109 % of control | T/C [10]: 101 % of control

CCc1cc(CC)c(CC)c(Br)c1CC
T/C [4]: 98 % of control | T/C [5]: 108 % of control | T/C [8]: 98 % of control | T/C [9]: 101 % of control

CCCCOC(=S)SCCSC(=S)OCCCC
T/C [5]: 101 % of control | T/C [6]: 98 % of control

O=C1c2cccc3c2C2(O)c4c1cccc4C(=O)c1cccc(c12)C3=O
T/C (endpoint: mean survival time, dose: 132.0 mg/kg/injection, schedule: Q01DX009 (ip), vehicle: saline with Tween-80): 104 % of control | T/C [6]: 121 % of control

CCN(C)N=Nc1ccc(C(N)=O)cc1
T/C (endpoint: mean survival time, dose: 18.75 mg/kg/injection, schedule: Q01DX009 (ip), vehicle: Klucel (hydroxypropylcellulose) (HPC)): 103 % of control | T/C (endpoint: mean survival time, dose: 75.0 mg/kg/injection, schedule: Q01DX009 (ip), vehicle: Klucel (hydroxypropylcellulose) (HPC)): 156 % of control | T/C (endpoint: mean survival time, dose: 100.0 mg/kg/injection, schedule: Q01DX009 (oral), vehicle: saline with Tween-80): 115 % of control | T/C (endpoint: mean survival time, dose: 200.0 mg/kg/injection, schedule: Q01DX009 (oral), vehicle: saline with Tween-80): 120 % of control

OCCOc1ccc2ccccc2c1
T/C (endpoint: mean survival time, dose: 100.0 mg/kg/injection, schedule: Q01DX001 (ip), vehicle: saline with Tween-80): 100 % of control | T/C (endpoint: mean survival time, dose: 100.0 mg/kg/injection, schedule: Q04DX003 (ip), vehicle: saline + alcohol): 97 % of control | T/C [11]: 108 % of control | T/C (endpoint: mean survival time, dose: 200.0 mg/kg/injection, schedule: Q04DX003 (ip), vehicle: saline + alcohol): 95 % of control | T/C [12]: 103 % of control | T/C (endpoint: mean survival time, dose: 400.0 mg/kg/injection, schedule: Q04DX003 (ip), vehicle: saline + alcohol): 91 % of control

Nc1nc2c(ncn2C2OC(COC(=O)Oc3ccccc3)C(O)C2O)c(=O)[nH]1 (stereo unspecified)
T/C (endpoint: mean survival time, dose: 50.0 mg/kg/injection, schedule: Q01DX009 (ip), vehicle: Klucel (hydroxypropylcellulose) (HPC)): 107 % of control | T/C (endpoint: mean survival time, dose: 100.0 mg/kg/injection, schedule: Q01DX009 (ip), vehicle: Klucel (hydroxypropylcellulose) (HPC)): 96 % of control | T/C (endpoint: mean survival time, dose: 200.0 mg/kg/injection, schedule: Q01DX009 (ip), vehicle: Klucel (hydroxypropylcellulose) (HPC)): 92 % of control

CC(=O)N(O)CCCCCNC(=O)CCC(=O)N(O)CCCCCNC(=O)CCC(=O)N(O)CCCCCN
T/C (endpoint: mean survival time, dose: 125.0 mg/kg/injection, schedule: Q03HX024 (ip), vehicle: water): 102 % of control | T/C (endpoint: mean survival time, dose: 188.0 mg/kg/injection, schedule: Q03HX024 (ip), vehicle: water): 97 % of control | T/C (endpoint: mean survival time, dose: 280.0 mg/kg/injection, schedule: Q03HX024 (ip), vehicle: water): 104 % of control
